Measurements: publication PMC11949107, “Polyunsaturated fatty acids and their endocannabinoid-related metabolites activity at human TRPV1 and TRPA1 ion channels expressed in HEK-293 cells” (PeerJ, 2025)
Where “and” joins values, the source holds several entries; their conditions need not be identical. Equal entries are not always repeated.

Legend:
[1] = system: HEK-293 EV cells; assay: Calcium 5 dye [Ca]i assay in HEK-293 empty vector (EV) cells; type: cell-based, human
Method: (§1) The cells were incubated in a 5% CO2 humidified atmosphere at 37 °C. Upon reaching approximately 90% confluence in 75 cm^2 flasks, they were trypsinized and transferred to poly-D-lysine coated 96-well plates (Corning, Castle Hill, NSW, Australia) in L-15 medium supplemented with 1% FBS, 100 U penicillin and 100 µg streptomycin ml^−1 (1% P/S), and 15 mM glucose (80 µL volume per well). After an overnight incubation (maximum of 16 h) in humidified room air at 37 °C, TRPV1 and TRPA1 receptor expression was induced 4 h before experimentation by adding to each well 10 µL tetracycline solution to a final concentration of 1 µg ml^−1.
Intracellular calcium [Ca]i levels were assessed using the calcium 5 kit from Molecular Devices (# R8186, Sunnyvale, CA, USA) on a FlexStation 3 Microplate Reader (Molecular Devices, Sunnyvale, CA, USA). […] 90 µL of the dye were loaded into each well of the plate and incubated for 1 h before reading in the FlexStation 3 at 37 °C. […] After 1 min of baseline recording, 20 µL of the drug, dissolved in HBSS with 1% dimethyl sulfoxide (DMSO) (cat # D2650; Sigma-Aldrich, Melbourne, Australia) was added (final DMSO concentration was 0.1% in well).
(§2) The response to agonists was expressed as a percentage change from the average baseline measurement taken for 60s before adding drug. Changes in fluorescence resulting from the addition of solvent were subtracted before normalization to baseline. Concentration–response curves (CRC), Emax and EC50 values were determined using a three-parameter logistic equation (GraphPad Prism, San Diego, CA, USA). […] Potencies were expressed as pEC50, which is the negative log of EC50 in moles per litre (Molar). Where appropriate, unpaired Student’s t-test were used to compare the responses of individual compounds in different conditions, while a one-way ANOVA followed by Dunnett’s multiple comparisons test was used to assess potential differences in responses elicited by a range of compounds. P < 0.05 was considered statistically significant.

[2] = target: T1, human TRPV1 (Homo sapiens, UniProt Q8NER1); assay: Calcium 5 dye [Ca]i assay in HEK-293 Flp-In T-REx cells expressing TRPV1 (agonist response); type: cell-based; settings: for Change in Ca5 fluorescence, individual experiments (CRC raw data): TRPV1 cells
T1 construct: Life Technologies (cells); host or cells: Flp-In T-REx HEK-293
T1 sequence (Q8NER1 whole entry): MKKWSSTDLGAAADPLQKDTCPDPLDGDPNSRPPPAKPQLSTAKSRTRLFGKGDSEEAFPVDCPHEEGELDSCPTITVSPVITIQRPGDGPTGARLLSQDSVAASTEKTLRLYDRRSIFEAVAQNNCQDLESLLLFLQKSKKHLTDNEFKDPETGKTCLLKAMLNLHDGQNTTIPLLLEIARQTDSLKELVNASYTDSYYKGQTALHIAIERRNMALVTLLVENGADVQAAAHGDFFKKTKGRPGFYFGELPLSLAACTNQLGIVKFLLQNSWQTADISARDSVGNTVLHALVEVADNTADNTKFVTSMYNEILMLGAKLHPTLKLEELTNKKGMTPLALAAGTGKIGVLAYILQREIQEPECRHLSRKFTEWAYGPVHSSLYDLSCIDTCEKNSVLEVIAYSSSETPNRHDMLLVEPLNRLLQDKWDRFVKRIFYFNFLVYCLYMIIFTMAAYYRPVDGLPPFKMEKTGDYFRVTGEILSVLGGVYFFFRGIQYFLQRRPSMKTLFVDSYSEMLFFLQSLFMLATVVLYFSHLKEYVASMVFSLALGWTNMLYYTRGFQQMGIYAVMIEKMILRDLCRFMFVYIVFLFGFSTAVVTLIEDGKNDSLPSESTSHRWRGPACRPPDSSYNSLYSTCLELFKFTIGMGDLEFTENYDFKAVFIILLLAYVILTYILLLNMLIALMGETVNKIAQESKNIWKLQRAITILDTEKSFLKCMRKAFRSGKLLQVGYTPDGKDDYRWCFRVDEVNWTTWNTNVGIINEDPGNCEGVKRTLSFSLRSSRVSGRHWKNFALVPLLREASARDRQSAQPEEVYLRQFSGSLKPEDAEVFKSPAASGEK
Method: as §1
(§3) Intracellular calcium [Ca]i levels were assessed using the calcium 5 kit from Molecular Devices (# R8186, Sunnyvale, CA, USA) on a FlexStation 3 Microplate Reader (Molecular Devices, Sunnyvale, CA, USA). […] Probenecid (cat # 50027; Biotium) which helps to prevent expulsion of calcium indicator from the cells was added to a final concentration of 1.25 mM. 90 µL of the dye were loaded into each well of the plate and incubated for 1 h before reading in the FlexStation 3 at 37 °C. Fluorescence was recorded every 2 s (λ excitation = 485 nm, λ emission = 525 nm) for 5 min. After 1 min of baseline recording, 20 µL of the drug, dissolved in HBSS with 1% dimethyl sulfoxide (DMSO) (cat # D2650; Sigma-Aldrich, Melbourne, Australia) was added (final DMSO concentration was 0.1% in well).
as §2

[3] = target: T2, human TRPA1 (Homo sapiens, UniProt O75762); assay: Calcium 5 dye [Ca]i assay in HEK-293 Flp-In T-REx cells expressing TRPA1 (agonist response); type: cell-based; settings: for Elevation of [Ca]i in HEK-293 TRPA1 cells compared with HEK-293 EV cells: 10 µM (cinnamaldehyde 300 µM)
T2 construct: Life Technologies (cells); host or cells: Flp-In T-REx HEK-293
T2 sequence (O75762 whole entry): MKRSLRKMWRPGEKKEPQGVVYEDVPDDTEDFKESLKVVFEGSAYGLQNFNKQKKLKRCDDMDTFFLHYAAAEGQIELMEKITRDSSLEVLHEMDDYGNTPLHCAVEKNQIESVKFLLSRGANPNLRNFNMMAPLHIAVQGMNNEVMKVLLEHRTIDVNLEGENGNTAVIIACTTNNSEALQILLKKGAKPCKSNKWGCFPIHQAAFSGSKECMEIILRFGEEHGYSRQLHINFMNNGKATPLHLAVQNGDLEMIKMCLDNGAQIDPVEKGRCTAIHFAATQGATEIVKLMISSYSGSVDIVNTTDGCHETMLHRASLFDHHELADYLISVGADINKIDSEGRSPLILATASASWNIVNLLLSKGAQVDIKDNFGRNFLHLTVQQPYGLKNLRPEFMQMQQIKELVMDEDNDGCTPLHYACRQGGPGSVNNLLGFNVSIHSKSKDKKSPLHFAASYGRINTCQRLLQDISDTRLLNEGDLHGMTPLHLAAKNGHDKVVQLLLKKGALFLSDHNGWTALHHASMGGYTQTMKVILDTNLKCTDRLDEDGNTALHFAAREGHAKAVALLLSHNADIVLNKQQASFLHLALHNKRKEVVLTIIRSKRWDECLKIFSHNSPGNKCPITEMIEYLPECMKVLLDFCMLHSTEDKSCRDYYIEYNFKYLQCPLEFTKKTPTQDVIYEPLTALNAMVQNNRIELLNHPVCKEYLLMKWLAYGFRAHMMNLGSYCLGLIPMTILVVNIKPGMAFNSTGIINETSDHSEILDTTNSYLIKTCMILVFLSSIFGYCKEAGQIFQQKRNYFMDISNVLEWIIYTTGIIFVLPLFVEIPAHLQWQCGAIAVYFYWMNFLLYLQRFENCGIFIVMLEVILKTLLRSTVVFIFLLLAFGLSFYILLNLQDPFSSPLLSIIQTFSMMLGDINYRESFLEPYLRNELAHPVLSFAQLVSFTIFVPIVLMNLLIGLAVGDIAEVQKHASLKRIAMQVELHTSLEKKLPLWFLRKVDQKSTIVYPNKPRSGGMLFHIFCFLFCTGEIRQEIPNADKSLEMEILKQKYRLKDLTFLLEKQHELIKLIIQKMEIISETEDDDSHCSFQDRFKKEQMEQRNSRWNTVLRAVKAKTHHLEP
Method: as §1, §3, §2

CCCCC/C=C\C/C=C\C/C=C\C/C=C\CCCCOC(CO)CO [2-AG ether, 2-arachidonoylglycerol ether]
Change of Ca5 fluorescence, Mean ± SEM, EV (10 µM) ([1]; 10 µM, HEK-293 EV cells, percentage of predrug baseline): 8 ± 2% | Elevation of [Ca]i in HEK-293 TRPV1 cells compared with HEK-293 EV cells ([2]; 10 µM): did not produce a notable change | Change of Ca5 fluorescence, Mean ± SEM, TRPV1 (10 µM) ([2]; 10 µM, HEK-293 TRPV1 cells, percentage of predrug baseline): 39 ± 24% | TRPV1 response, Mean± SEM (N) ([2]; 30 µM, one-way ANOVA comparison with capsaicin 10 µM): 63± 56 | Emax ± SEM % TRPV1 (30 µM) ([2]; highest tested concentration (30 µM) or derived from concentration-response curves (DHEA, AEA, NADA, capsaicin)): 63 ± 23% | Change in Ca5 fluorescence, individual experiments (CRC raw data) ([2]; log concentration -4.52288 (M)): 153.653 and 87.759 and 41.6511 and 12.8054 and 5.8133 and 75.505 | Change in Ca5 fluorescence, individual experiments (CRC raw data) ([2]; log concentration -5 (M)): 155.318 and 30.8581 and 23.9661 and 3.174 and 0.3103 and 20.3939 | Change in Ca5 fluorescence, individual experiments (CRC raw data) ([2]; log concentration -5.52288 (M)): 16.5791 and 3.033 and 7.578 and 1.888 and 0.6433 and 11.7313 | Change in Ca5 fluorescence, individual experiments (CRC raw data) ([2]; log concentration -6 (M)): 7.918 and 3.6522 and 9.605 and 2.557 and 2.906 and 1.314 | Change in Ca5 fluorescence, individual experiments (CRC raw data) ([2]; log concentration -6.52288 (M)): 3.121 and 1.724 and 12.4457 and 2.326 and 0.7415 and 2.165 | Change in Ca5 fluorescence, individual experiments (CRC raw data) ([2]; log concentration -7 (M)): 2.256 and 4.13 and 8.499 and 1.026 and 2.717 and 1.813 | Elevation of [Ca]i in HEK-293 TRPA1 cells compared with HEK-293 EV cells [3]: did not produce a change | Change of Ca5 fluorescence, Mean ± SEM, TRPA1 (10 µM) ([3]; 10 µM, HEK-293 TRPA1 cells, percentage of predrug baseline): 91 ± 40% | TRPA1 activation at the highest concentration tested ([3]; 30 µM): activated TRPA1 | TRPA1 response compared with the highest concentration of cinnamaldehyde (300 µM) ([3]; 30 µM): significantly smaller | TRPA1 response, Mean± SEM (N) ([3]; 30 µM, one-way ANOVA comparison with cinnamaldehyde 300 µM): 223 ± 60 | [Ca]i response (change in fluorescence), individual replicates ([3]; concentration -4.52288 (log), sheet Figure 3(E)): 16.8824 and 397.614 and 5.373 and 104.863 and 520.454 and 293.014 | [Ca]i response (change in fluorescence), individual replicates ([3]; concentration -5 (log), sheet Figure 3(E)): 6.439 and 205.99 and 4.156 and 6.3216 and 170.328 and 155.005 | [Ca]i response (change in fluorescence), individual replicates ([3]; concentration -5.52288 (log), sheet Figure 3(E)): 2.263 and 3.295 and 6.759 and 5.886 and 11.1841 and 49.3437 | [Ca]i response (change in fluorescence), individual replicates ([3]; concentration -6 (log), sheet Figure 3(E)): 11.4488 and 1.879 and 1.228 and 4.253 and 4.557 and 3.684 | [Ca]i response (change in fluorescence), individual replicates ([3]; concentration -6.52288 (log), sheet Figure 3(E)): 9.48 and 8.5131 and 4.1 and 4.971 and 4.357 and 3.125 | [Ca]i response (change in fluorescence), individual replicates ([3]; concentration -7 (log), sheet Figure 3(E)): 0.2809 and 4.873 and 5.959 and 5.37 and 6.745 and 2.857 | Emax ± SEM % TRPA1 (30 µM) ([3]; highest tested concentration (30 µM) or derived from concentration-response curves (cinnamaldehyde)): 223 ± 87%

O=C/C=C/c1ccccc1 [Cinnamaldehyde, reference compound]
Change of Ca5 fluorescence, Mean ± SEM, EV ([1]; 300 µM): 9 ± 6% | Elevation of [Ca]i in HEK-293 TRPA1 cells compared with HEK-293 EV cells [3]: significantly greater | Emax at 30 µM ([3]; HEK293, read-out: Emax ± SEM % TRPA1 (30 µM)): 503 ± 23% | EC50 ([3]; HEK-293 TRPA1 cells, EC50 in molar, read-out: pEC50 ± SEM TRPA1 (converted)): 39.8 µM | [Ca]i response (change in fluorescence), individual replicates ([3]; concentration -3 (log), sheet Figure 3(E), listed as CA): 406.777 and 372.997 and 396.442 and 391.125 and 560.24 and 475.841 and 620.741 and 568.711 and 690.623 and 560.219 and 348.734 | [Ca]i response (change in fluorescence), individual replicates ([3]; concentration -3.52288 (log), sheet Figure 3(E), listed as CA): 399.171 and 292.37 and 420 and 326.195 and 503.571 and 407.047 and 570.074 and 544.405 and 658.472 and 579.18 and 509.178 and 443.895 and 251.795 | [Ca]i response (change in fluorescence), individual replicates ([3]; concentration -4 (log), sheet Figure 3(E), listed as CA): 465.941 and 242.855 and 408.124 and 299.959 and 422.86 and 556.178 and 443.235 and 598.589 and 512.677 and 412.651 and 386.358 and 8.272 | [Ca]i response (change in fluorescence), individual replicates ([3]; concentration -4.52288 (log), sheet Figure 4, listed as CA): 54.0853 and 24.6638 and 241.325 | [Ca]i response (change in fluorescence), individual replicates ([3]; concentration -6 (log), sheet Figure 3(E), listed as CA): 0.7258 and 2.113 and 6.067 and 2.682 and 1.675 and 5.148 and 1.916 and 4.62 and 6.922 and 6.788 and 9.2435 | [Ca]i response (change in fluorescence), individual replicates ([3]; concentration -6.52288 (log), sheet Figure 3(E), listed as CA): 2.403 and 2.775 and 5.3494 and 3.66 and 4.992 and 6.537 and 3.841 and 13.1494 and 4.894 and 10.2884 and 14.1967 and 10.211 and 1.152 and 9.578 | TRPA1 response, Mean± SEM (N) ([3]; highest concentration of cinnamaldehyde (300 µM)): 461 ± 60 (14)
